Legend:
[1] = test system: Toxoplasma gondii adenosine kinase; experiment: Binding affinity; conditions: relative to 6-(p-methylbenzylthio)inosine; ref 24 and Table 2
[2] = test system: wild type (RH) strain of T. gondii; experiment: Anti-toxoplasmic activity in tissue culture; assay type: cell-based, Toxoplasma gondii; conditions: wild type (RH) in human fibroblasts
[3] = test system: adenosine kinase deficient (TgAK^-3) strain of T. gondii; experiment: Anti-toxoplasmic activity in tissue culture; assay type: cell-based, Toxoplasma gondii; conditions: TgAK^-3 in human fibroblasts
[4] = test system: uninfected human foreskin fibroblasts; experiment: Host toxicity, MTT assay on uninfected host cells; conditions: infection: None

In the case of Cc1ccc(CSc2ncnc3c2ncn3C2CC(CO)C(O)C2O)cc1 (stereo not shown) [Compound 11, Carbocyclic 6-(p-methylbenzylthio)inosine], the “enhancement of binding by inclusion of the carbocyclic motif” value [1] is reported as 3.7 fold, the “percent survival of parasite” value ([2]; 5 μM compound) is reported as 43.4% and the “percent survival of parasite” value ([2]; 10 μM compound) is reported as 2.54%. The “percent survival of parasite” value ([2]; 25 μM compound) was 0.0%, the “percent survival of parasite” value ([2]; 50 μM compound) was 0.0% and the “percent survival of parasite” value ([3]; 5 μM compound) was 99.0%. For the same compound, the “percent survival of parasite” value ([3]; 10 μM compound) was 100%, the “percent survival of parasite” value ([3]; 25 μM compound) was 100% and the “percent survival of parasite” value ([3]; 50 μM compound) was 100%. The “host-toxicity (survival of uninfected host cells)” value (“host-toxicity” for short) ([4]; 5 μM compound) was 100%, the “host-toxicity” value ([4]; 10 μM compound) was 100% and the “host-toxicity” value ([4]; 25 μM compound) was 100%. The “host-toxicity” value ([4]; 50 μM compound) was 100%.

— article PMC2923275 (Biochemical pharmacology, 2010)
